Results taken from patent US20230085307A1, “PYRIDAZINONE COMPOUND AND HERBICIDE” (NISSAN CHEMICAL CORPORATION, priority 2019, published 2023).

Key:
barnyard grass [1] = experiment: Test Example 4: herbicidal effect by soil treatment (Table 19, symbol H); type: in vivo, barnyard grass (Echinochloa crus-galli); conditions: for H: barnyard grass, herbicidal effect rating: AAH 320 g/ha; for herbicidal effect rating, H: barnyard grass: amount of applied herbicide 320 g/ha
Outline: (§1)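 Soil-surface application: an emulsion agent diluted with water to the predetermined dose is sprayed uniformly over seeds lying under roughly 1.5 cm of sterilized diluvial soil. Boxes stay in a greenhouse at 25° C. to 30° C. Three weeks later, each species is graded on previously defined criteria.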

oval-leafed pondweed = experiment: Test Example 1: herbicidal activity, application before weed generation under submerged conditions (Table 16, symbol C); type: in vivo, oval-leafed pondweed (Monochoria vaginalis); conditions: 320 g/ha applied herbicide
Outline: (§2)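 Emulsion formulation, water-diluted to set dose, was put onto the flooded surface (4 cm depth, alluvial soil) the same day weeds were sown and 2.5-leaf rice transplanted. After 3 weeks at 25-30 °C under glass, each species was rated 0 (≤5% kill) to 5 (≥90% kill).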

rice flat sedge = experiment: Test Example 3: herbicidal effect by foliage application, Wagner pot (Table 18, symbol E); type: in vivo, rice flat sedge (Cyperus iria); conditions: 320 g/ha
Outline: (§3)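 Plants were sown in alluvial soil held under 0.1–0.5 cm standing water and grown 14 days in a greenhouse at 25–30 °C. An emulsifiable formulation, water-diluted to the set dose, was then sprayed onto the foliage, and effects were scored three weeks later using previously defined criteria.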

velvetleaf [2] = experiment: Test Example 4: herbicidal effect by soil treatment (Table 19, symbol M); type: in vivo, velvetleaf (Abutilon theophrasti); conditions: for M: velvetleaf, herbicidal effect rating: AAH 320 g/ha; for herbicidal effect rating, M: velvetleaf: amount of applied herbicide 320 g/ha
Outline: as §1

wild oat [3] = experiment: Test Example 5: herbicidal effect by foliage application, plastic box (Table 20, symbol I); type: in vivo, wild oat (Avena fatua); conditions: foliage application, 320 g/ha; for effect on wild oat (I): 3 weeks after application; for herbicidal effect grade, I: wild oat: three weeks after application
Outline: (§4)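 Sow seeds spot-wise in sterilized diluvial soil; cover with ~1.5 cm soil. Grow 14 days in greenhouse, 25° C. to 30° C. Spray foliage with emulsion diluted to predetermined amount. Rate effect after 3 weeks.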

late watergrass = experiment: Test Example 2: herbicidal activity, application during weed generation under submerged conditions (Table 17, symbol A); type: in vivo, late watergrass (Echinochloa oryzicola); conditions: AAH 320 g/ha; application during weed generation, submerged conditions
Outline: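 Mixed weed seedlings in alluvial soil under a 4 cm water layer, greenhouse-grown at 25–30° C. Compound given as a diluted emulsion into the floodwater at the 1–2 leaf stage; response graded after three weeks.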

windgrass [4] = experiment: Test Example 5: herbicidal effect by foliage application, plastic box (Table 20, symbol L); type: in vivo, windgrass (Apera spica-venti); conditions: foliage application, 320 g/ha; for effect on windgrass (L): 3 weeks after application; for herbicidal effect grade, L: windgrass: three weeks after application
Outline: as §4

Japanese bulrush = experiment: Test Example 1: herbicidal activity, application before weed generation under submerged conditions (Table 16, symbol B); type: in vivo, Japanese bulrush (Schoenoplectus juncoides); conditions: 320 g/ha applied herbicide
Outline: as §2

lambsquarters = experiment: Test Example 4: herbicidal effect by soil treatment (Table 19, symbol O); type: in vivo, lambsquarters (Chenopodium album); conditions: for O: lambsquarters, herbicidal effect rating: AAH 320 g/ha; for herbicidal effect rating, O: lambsquarters: amount of applied herbicide 320 g/ha
Outline: as §1

Chinese sprangletop = experiment: Test Example 3: herbicidal effect by foliage application, Wagner pot (Table 18, symbol D); type: in vivo, chinese sprangletop (Leptochloa chinensis); conditions: 320 g/ha
Outline: as §3

wild oat [5] = experiment: Test Example 4: herbicidal effect by soil treatment (Table 19, symbol I); type: in vivo, wild oat (Avena fatua); conditions: for I: wild oat, herbicidal effect rating: AAH 320 g/ha; for herbicidal effect rating, I: wild oat: amount of applied herbicide 320 g/ha
Outline: as §1

blackgrass = experiment: Test Example 5: herbicidal effect by foliage application, plastic box (Table 20, symbol J); type: in vivo, blackgrass (Alopecurus myosuroides); conditions: foliage application, 320 g/ha; for effect on blackgrass (J): 3 weeks after application; for herbicidal effect grade, J: blackgrass: three weeks after application
Outline: as §4

barnyard grass [6] = experiment: Test Example 3: herbicidal effect by foliage application, Wagner pot (Table 18, symbol H); type: in vivo, barnyard grass (Echinochloa crus-galli); conditions: 320 g/ha
Outline: as §3

green foxtail = experiment: Test Example 5: herbicidal effect by foliage application, plastic box (Table 20, symbol G); type: in vivo, green foxtail (Setaria viridis); conditions: foliage application, 320 g/ha; for effect on green foxtail (G): 3 weeks after application; for herbicidal effect grade, G: green foxtail: three weeks after application
Outline: as §4

velvetleaf [7] = experiment: Test Example 5: herbicidal effect by foliage application, plastic box (Table 20, symbol M); type: in vivo, velvetleaf (Abutilon theophrasti); conditions: foliage application, 320 g/ha; for effect on velvetleaf (M): 3 weeks after application; for herbicidal effect grade, M: velvetleaf: three weeks after application
Outline: as §4

windgrass [8] = experiment: Test Example 4: herbicidal effect by soil treatment (Table 19, symbol L); type: in vivo, windgrass (Apera spica-venti); conditions: AAH 320 g/ha
Outline: as §1

chickweed = experiment: Test Example 5: herbicidal effect by foliage application, plastic box (Table 20, symbol P); type: in vivo, common chickweed (Stellaria media); conditions: foliage application, 320 g/ha, three weeks after application
Outline: as §4

Row | SMILES | H: barnyard grass, herbicidal effect rating (barnyard grass [1]) | Herbicidal effect on C: oval-leafed pondweed (grade 0-5) (oval-leafed pondweed) | herbicidal effect on E (rice flat sedge), rating 0-5 (rice flat sedge) | M: velvetleaf, herbicidal effect rating (velvetleaf [2]) | effect on wild oat (I) (wild oat [3]) | herbicidal effect rating, A: late watergrass (late watergrass) | effect on windgrass (L) (windgrass [4]) | Herbicidal effect on B: Japanese bulrush (grade 0-5) (Japanese bulrush) | O: lambsquarters, herbicidal effect rating (lambsquarters) | herbicidal effect on D (Chinese sprangletop), rating 0-5 (Chinese sprangletop) | I: wild oat, herbicidal effect rating (wild oat [5]) | effect on blackgrass (J) (blackgrass) | herbicidal effect on H (barnyard grass), rating 0-5 (barnyard grass [6]) | effect on green foxtail (G) (green foxtail) | effect on velvetleaf (M) (velvetleaf [7]) | L: windgrass, herbicidal effect rating (windgrass [8]) | herbicidal effect rating, H: barnyard grass (barnyard grass [1]) | herbicidal effect rating, M: velvetleaf (velvetleaf [2]) | herbicidal effect grade, I: wild oat (wild oat [3]) | herbicidal effect grade, L: windgrass (windgrass [4]) | other results
1 | C=CCC(C)Oc1ccc(-c2sc3ccccc3c2-c2c(O)c(C)nn(C)c2=O)cc1 (racemic) [1-213] | 0 (Herbicidal rate of 5% or less (almost no effect)) | 5 (Herbicidal rate of 90% or more (almost completely withered)) | 3 (Herbicidal rate of 40% or more and less than 70%) | 0 (Herbicidal rate of 5% or less (almost no effect)) | 3 (Herbicidal rate of 40% or more and less than 70%) | 3 (Herbicidal rate of 40% or more and less than 70%) | 5 (Herbicidal rate of 90% or more (almost completely withered)) | 5 (Herbicidal rate of 90% or more (almost completely withered)) | 0 (Herbicidal rate of 5% or less (almost no effect)) | 4 (Herbicidal rate of 70% or more and less than 90%) | 0 (Herbicidal rate of 5% or less (almost no effect)) | 5 (Herbicidal rate of 90% or more (almost completely withered)) | 5 (Herbicidal rate of 90% or more (almost completely withered)) | 5 (Herbicidal rate of 90% or more (almost completely withered)) | 5 (Herbicidal rate of 90% or more (almost completely withered)) | 2 (Herbicidal rate of 20% or more and less than 40%) |  |  |  |  | 
2 | C#CC(C)Oc1ccc(-c2sc3ccccc3c2-c2c(O)c(C)nn(C)c2=O)cc1 (racemic) [1-217] |  | 3 (Herbicidal rate of 40% or more and less than 70%) | 3 (Herbicidal rate of 40% or more and less than 70%) | 0 (Herbicidal rate of 5% or less (almost no effect)) | 3 (Herbicidal rate of 40% or more and less than 70%) | 0 (Herbicidal rate of 5% or less (almost no effect)) | 5 (Herbicidal rate of 90% or more (almost completely withered)) | 5 (Herbicidal rate of 90% or more (almost completely withered)) | 2 (Herbicidal rate of 20% or more and less than 40%) | 5 (Herbicidal rate of 90% or more (almost completely withered)) | 0 (Herbicidal rate of 5% or less (almost no effect)) | 4 (Herbicidal rate of 70% or more and less than 90%) | 5 (Herbicidal rate of 90% or more (almost completely withered)) | 4 (Herbicidal rate of 70% or more and less than 90%) | 5 (Herbicidal rate of 90% or more (almost completely withered)) | 0 (Herbicidal rate of 5% or less (almost no effect)) |  |  |  |  | 
3 | COCC(C)Oc1ccc(-c2sc3ccccc3c2-c2c(O)c(C)nn(C)c2=O)cc1 (racemic) [1-228] | 4 (Herbicidal rate of 70% or more and less than 90%) | 4 (Herbicidal rate of 70% or more and less than 90%) | 4 (Herbicidal rate of 70% or more and less than 90%) | 4 (Herbicidal rate of 70% or more and less than 90%) | 0 (Herbicidal rate of 5% or less (almost no effect)) | 5 (Herbicidal rate of 90% or more (almost completely withered)) | 5 (Herbicidal rate of 90% or more (almost completely withered)) | 5 (Herbicidal rate of 90% or more (almost completely withered)) | 5 (Herbicidal rate of 90% or more (almost completely withered)) | 5 (Herbicidal rate of 90% or more (almost completely withered)) | 0 (Herbicidal rate of 5% or less (almost no effect)) | 5 (Herbicidal rate of 90% or more (almost completely withered)) | 5 (Herbicidal rate of 90% or more (almost completely withered)) | 5 (Herbicidal rate of 90% or more (almost completely withered)) | 5 (Herbicidal rate of 90% or more (almost completely withered)) |  |  |  |  |  | 
4 | CC(=O)c1ccc(-c2sc3ccccc3c2-c2c(O)c(C)nn(C)c2=O)cc1 [1-041] |  | 4 (Herbicidal rate of 70% or more and less than 90%) | 5 (Herbicidal rate of 90% or more (almost completely withered)) |  |  | 0 (Herbicidal rate of 5% or less (almost no effect)) |  | 4 (Herbicidal rate of 70% or more and less than 90%) |  | 4 (Herbicidal rate of 70% or more and less than 90%) |  |  | 1 (Herbicidal rate of 5% or more and less than 20%) |  |  |  | 0 (Herbicidal rate of 5% or less (almost no effect)) | 3 (Herbicidal rate of 40% or more and less than 70%) | 1 (Herbicidal rate of 5% or more and less than 20%) | 4 (Herbicidal rate of 70% or more and less than 90%) | herbicidal effect rating, O: lambsquarters (lambsquarters): 5 (Herbicidal rate of 90% or more (almost completely withered)); herbicidal effect rating, I: wild oat (wild oat [5]): 1 (Herbicidal rate of 5% or more and less than 20%); herbicidal effect grade, J: blackgrass (blackgrass): 0 (Herbicidal rate of 5% or less (almost no effect)); herbicidal effect grade, P: chickweed (chickweed): 5 (Herbicidal rate of 90% or more (almost completely withered)); herbicidal effect grade, G: green foxtail (green foxtail): 1 (Herbicidal rate of 5% or more and less than 20%); herbicidal effect grade, M: velvetleaf (velvetleaf [7]): 5 (Herbicidal rate of 90% or more (almost completely withered))
5 | Cc1cc(-c2sc3ccccc3c2-c2c(O)c(C)nn(C)c2=O)ccc1F [1-051] |  | 0 (Herbicidal rate of 5% or less (almost no effect)) | 5 (Herbicidal rate of 90% or more (almost completely withered)) |  |  | 2 (Herbicidal rate of 20% or more and less than 40%) |  | 0 (Herbicidal rate of 5% or less (almost no effect)) |  | 0 (Herbicidal rate of 5% or less (almost no effect)) |  |  | 4 (Herbicidal rate of 70% or more and less than 90%) |  |  |  | 3 (Herbicidal rate of 40% or more and less than 70%) | 4 (Herbicidal rate of 70% or more and less than 90%) | 3 (Herbicidal rate of 40% or more and less than 70%) | 4 (Herbicidal rate of 70% or more and less than 90%) | herbicidal effect rating, O: lambsquarters (lambsquarters): 4 (Herbicidal rate of 70% or more and less than 90%); herbicidal effect rating, I: wild oat (wild oat [5]): 0 (Herbicidal rate of 5% or less (almost no effect)); herbicidal effect grade, J: blackgrass (blackgrass): 0 (Herbicidal rate of 5% or less (almost no effect)); herbicidal effect grade, P: chickweed (chickweed): 5 (Herbicidal rate of 90% or more (almost completely withered)); herbicidal effect grade, G: green foxtail (green foxtail): 5 (Herbicidal rate of 90% or more (almost completely withered)); herbicidal effect grade, M: velvetleaf (velvetleaf [7]): 5 (Herbicidal rate of 90% or more (almost completely withered))
